Source: patent US6569906B1, “Composition containing a precursor capable of being hydrolysed by glucocerebrosidase” (Pierre Fabre Dermo-Cosmetique, priority 1998, dated 2003)

Tests used:
[1] = Nonirradiated; cream containing 0.4%
From the text: The photostability of delta-tocopheryl-glucopyranoside and that of delta-tocopherol are compared.
Samples of a cream containing 0.4% of delta-tocopheryl-glucopyranoside or of delta-tocopherol are irradiated with a 28 J/cm^2 incident light of 290 to 800 nm (5 DEM).

[2] = Antioxidant activity against the peroxidation of squalene, MDA as indicator
Procedure: (§1) The concentration of MDA released is measured by complexing with thiobarbituric acid in an acidic medium. The chromogenic complex formed absorbs at 532 nm. Its quantification is monitored by fluorimetry.
The antioxidant activity of various compounds against the peroxidation of an unsaturated lipid, squalene, is measured.

glucocerebrosidase = target: T1, glucocerebrosidase (Homo sapiens, UniProt P04062); test: Kinetics of hydrolysis of glucosylated precursors by glucocerebrosidase of a stratum corneum extract; type: biochemical; conditions: for Quantity of molecule released: phthalate buffer pH 5.6, 24 hours incubation, freeze-dried cutaneous extract, three strippings of 15 cm^2; for Release of the active agent from its glucosylated precursor: from the glucopyranoside precursor
T1 construct: a freeze-dried cutaneous extract obtained after taking a sample by three successive strippings of 15 cm^2; from tissue; host or cells: stratum corneum (powdered, freeze-dried cutaneous extract from three successive strippings)
T1 sequence (P04062 40-536): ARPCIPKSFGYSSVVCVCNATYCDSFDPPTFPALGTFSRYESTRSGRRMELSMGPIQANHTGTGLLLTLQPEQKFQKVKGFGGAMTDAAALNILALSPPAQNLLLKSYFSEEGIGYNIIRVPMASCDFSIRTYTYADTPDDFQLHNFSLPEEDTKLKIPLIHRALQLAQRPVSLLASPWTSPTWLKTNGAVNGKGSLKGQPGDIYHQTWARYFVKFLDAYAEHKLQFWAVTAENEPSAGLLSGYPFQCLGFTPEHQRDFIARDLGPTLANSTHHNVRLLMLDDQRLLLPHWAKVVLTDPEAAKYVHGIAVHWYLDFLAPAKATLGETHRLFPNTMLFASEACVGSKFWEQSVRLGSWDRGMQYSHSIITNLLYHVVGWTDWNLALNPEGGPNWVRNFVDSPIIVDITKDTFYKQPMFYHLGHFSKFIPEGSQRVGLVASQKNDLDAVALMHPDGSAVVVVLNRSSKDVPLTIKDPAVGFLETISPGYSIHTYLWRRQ
Procedure: The precursor and the stratum corneum sample in powdered form are incorporated into a liquid medium buffered with a phthalate buffer at pH 5.6. The mixture is incubated for 24 hours and the quantity of active agent released is assayed by densitometry on a thin-layer chromatography plate.
The following table gives, for various glucosylated precursors, the quantity of molecule released following their hydrolysis by glucocerebrosidase over 24 hours by a freeze-dried cutaneous extract obtained after taking a sample by three successive strippings of 15 cm^2.

[3] = MDA released in a cream with borage oil containing vitamin E after two hour solar exposure (thiobarbituric acid complex); conditions: for Concentration of MDA released: two hour solar exposure
Procedure: The concentration of malonaldehyde (MDA) released in a cream containing increasing quantities of an antioxidant, vitamin E (or alpha-tocopherol), which is subjected to an oxidative stress, is measured.
The cream containing vitamin E also contains borage oil which is naturally rich in linoleic acid. Oxidative stress consists in a two hour solar exposure.
as §1

| Compound | Quantity of molecule released (glucocerebrosidase) [n mol/hour] | Quantity of MDA released [2] [μg MDA] | further results |
| --- | --- | --- | --- |
| Cc1cc(O)cc2c1O[C@](C)(CCC[C@H](C)CCC[C@H](C)CCCC(C)C)CC2 [Delta-tocopherol, delta-tocopherol] | – | 7.2 ± 1.7 | Amount of compound in the cream [1]: 310 ± 14 Micromoles |
| Cc1c(O)cc2c(c1C)O[C@](C)(CCC[C@H](C)CCC[C@H](C)CCCC(C)C)CC2 [γ-tocopherol] | – | – | Release of the active agent from its glucosylated precursor (glucocerebrosidase): not released |
| Cc1c(C)c2c(c(C)c1O)CC[C@@](C)(CCC[C@H](C)CCC[C@H](C)CCCC(C)C)O2 [vitamin E, alpha-tocopherol] | – | – | Release of the active agent from its glucosylated precursor (glucocerebrosidase): not released; Concentration of MDA released ([3]; 0.05 % by mass vitamin E in the cream): 1.2 ± 0.15 μg MDA/100 mg cream; Concentration of MDA released ([3]; 0.1 % by mass vitamin E in the cream): 1.9 ± 0.20 μg MDA/100 mg cream; Concentration of MDA released ([3]; 0.15 % by mass vitamin E in the cream): 2.0 ± 0.20 μg MDA/100 mg cream; Pro-inflammatory effect ([3]; cream rich in polyunsaturated fatty acid): causes a pro-inflammatory effect |
| CCCCCCCCCCCCCCCC(=O)Oc1c(C)c(C)c2c(c1C)CCC(C)(CCCC(C)CCCC(C)CCCC(C)C)O2 (stereo not drawn) [Vitamin E palmitate, alpha-tocopherol palmitate] | – | 182.7 ± 39 | – |
| Cc1cc(=O)oc2cc(OC3O[C@H](CO)[C@@H](O)[C@H](O)[C@H]3O)ccc12 (stereo partly shown) [4-methylumbelliferyl-glucopyranoside, 4-methylumbelliferyl glucopyranoside] | 100 ± 7 | – | – |
| OC[C@H]1OC(Oc2ccccc2)[C@H](O)[C@@H](O)[C@@H]1O (stereo partly shown) [Phenylglucopyranoside] | 0.2 ± 0.5 | – | – |
| CC(C)CCCC(C)CCCC(C)CCCC1(C)CCc2cc(O)ccc2O1 (stereo not shown) [Tocol] | – | 6 ± 1.9 | – |

More lines, main results first:

| Quantity of molecule released (glucocerebrosidase) [n mol/hour] | Compound | Quantity of MDA released [2] [μg MDA] | further results |
| --- | --- | --- | --- |
| 14.3 ± 1 | Cc1cc(O[C@@H]2O[C@H](CO)[C@@H](O)[C@H](O)[C@H]2O)cc2c1O[C@](C)(CCC[C@H](C)CCC[C@H](C)CCCC(C)C)CC2 [Delta-tocopherol-glucopyranoside] | 128 ± 38 | Amount of compound in the cream [1]: 311 ± 7 Micromoles |
| 0 | Cc1c(OC2O[C@H](CO)[C@@H](O)[C@H](O)[C@H]2O)cc2c(c1C)OC(C)(CCCC(C)CCCC(C)CCCC(C)C)CC2 (stereo partly shown) [γ-Tocopheryl-glucopyranoside] | – | – |
| 0 | Cc1c(C)c2c(c(C)c1OC1O[C@H](CO)[C@@H](O)[C@H](O)[C@H]1O)CCC(C)(CCCC(C)CCCC(C)CCCC(C)C)O2 (stereo partly drawn) [α-Tocopheryl-glucopyranoside] | – | – |
| 14.8 ± 1.2 | CC(C)CCCC(C)CCCC(C)CCCC1(C)CCc2cc(OC3OC(CO)C(O)C(O)C3O)ccc2O1 (stereo not shown) [Tocol-glucopyranoside, tocol-glucopyranoside] | 142 ± 28 | – |
